Test: xn = mol fraction of the nth substance listed
Conditions: Gas, Buoyancy - hydrostatic balance with magnetic suspension - one sinker

[HH] [hydrogen] + C
Conditions	mass density [kg/m3]
240.07 K, 999 kPa, x2 = 0.9	7.556
240.07 K, 1000 kPa, x2 = 0.4997	4.558
240.07 K, 1999 kPa, x2 = 0.9	15.591
240.07 K, 2000 kPa, x2 = 0.4997	9.174
240.07 K, 3001 kPa, x2 = 0.9	24.162
240.07 K, 3002 kPa, x2 = 0.4997	13.857
240.07 K, 4001 kPa, x2 = 0.9	33.3
240.07 K, 4003 kPa, x2 = 0.4997	18.584
240.07 K, 5000 kPa, x2 = 0.4997	23.326
240.07 K, 5001 kPa, x2 = 0.9	43.067
240.07 K, 6003 kPa, x2 = 0.4997	28.124
240.07 K, 6003 kPa, x2 = 0.9	53.504
240.07 K, 7000 kPa, x2 = 0.4997	32.918
240.07 K, 7005 kPa, x2 = 0.9	64.62
240.07 K, 8003 kPa, x2 = 0.4997	37.747
240.07 K, 9002 kPa, x2 = 0.4997	42.553
240.07 K, 10006 kPa, x2 = 0.4997	47.368
240.07 K, 11006 kPa, x2 = 0.4997	52.137
240.07 K, 11011 kPa, x2 = 0.9499	128.048
240.07 K, 12005 kPa, x2 = 0.4997	56.857
240.07 K, 12014 kPa, x2 = 0.9499	142.433
240.07 K, 13003 kPa, x2 = 0.4997	61.522
240.07 K, 13016 kPa, x2 = 0.9499	155.953
240.07 K, 14011 kPa, x2 = 0.4997	66.173
240.07 K, 14016 kPa, x2 = 0.9499	168.365
240.07 K, 15002 kPa, x2 = 0.4997	70.674
240.07 K, 15021 kPa, x2 = 0.9499	179.661
240.07 K, 16013 kPa, x2 = 0.4997	75.179
240.07 K, 16020 kPa, x2 = 0.9499	189.762
240.07 K, 17008 kPa, x2 = 0.4997	79.535
240.07 K, 17018 kPa, x2 = 0.9	179.188
240.07 K, 17021 kPa, x2 = 0.9499	198.87
240.07 K, 18016 kPa, x2 = 0.4997	83.857
240.07 K, 18016 kPa, x2 = 0.9499	207.026
240.07 K, 18030 kPa, x2 = 0.9	187.542
240.07 K, 19008 kPa, x2 = 0.4997	88.009
240.07 K, 19013 kPa, x2 = 0.9499	214.425
240.07 K, 19032 kPa, x2 = 0.9	195.115
240.07 K, 19589 kPa, x2 = 0.9	199.054
240.07 K, 19703 kPa, x2 = 0.4997	90.858
240.07 K, 19891 kPa, x2 = 0.9499	220.394
240.08 K, 999 kPa, x2 = 0.9499	7.937
240.08 K, 1998 kPa, x2 = 0.9499	16.447
240.08 K, 3000 kPa, x2 = 0.9499	25.62
240.08 K, 3999 kPa, x2 = 0.9499	35.505
240.08 K, 5004 kPa, x2 = 0.9499	46.287
240.08 K, 6000 kPa, x2 = 0.9499	57.87
240.08 K, 7002 kPa, x2 = 0.9499	70.478
